Assay results as given in ChEMBL document CHEMBL1201862, “PubChem BioAssay data set” (2004).
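96-well plates; 48 h exposure; 5 concentrations. Endpoints by linear interpolation between flanking doses. Not reached: highest tested concentration assigned. GI50 marks 50% less growth.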 Calls of active or inactive are those of the source. No stated cut-off is given here; in the data, active = GI50 up to about 1.1 µM and inactive = higher.

Columns and labels:
Experiment in all cases: DTP human tumour cell line panel, 48 h
[1] = tested on: RXF 393
[2] = tested on: NCI-H460
[3] = tested on: DU-145
[4] = tested on: HT-29
[5] = tested on: PC-3
[6] = tested on: SK-OV-3
[7] = tested on: SF-539
[8] = tested on: U-251
[9] = tested on: A549
[10] = tested on: Malme-3M
[11] = tested on: UACC-62
[12] = tested on: Hs-578T
[13] = tested on: NCI-H226
[14] = tested on: OVCAR-8
[15] = tested on: HCC 2998
[16] = tested on: COLO 205
[17] = tested on: OVCAR-4
[18] = tested on: ACHN
[19] = tested on: SR
[20] = tested on: SF-268

Structure (SMILES)	GI50 [1]	GI50 [2]	GI50 [3]	GI50 [4]	GI50 [5]	GI50 [6]	GI50 [7]	GI50 [8]	GI50 [9]	GI50 [10]	GI50 [11]	GI50 [12]	GI50 [13]	GI50 [14]	GI50 [15]	GI50 [16]	GI50 [17]	GI50 [18]	GI50 [19]	GI50 [20]
CC(=O)C(C(c1ccccc1)N1CCOCC1)N1CCOCC1 (stereo not given)	> 100 µM (inactive)	19.2 µM (inactive)	> 100 µM (inactive)	> 100 µM (inactive)	> 100 µM (inactive)	> 100 µM (inactive)	> 100 µM (inactive)	> 100 µM (inactive)	> 100 µM (inactive)	> 100 µM (inactive)	> 100 µM (inactive)	> 100 µM (inactive)	> 100 µM (inactive)	> 100 µM (inactive)	20.3 µM (inactive)	> 100 µM (inactive)	> 100 µM (inactive)	> 100 µM (inactive)	83.9 µM (inactive)	> 100 µM (inactive)
O=C(CC(C(=O)c1cccs1)c1ccsc1)c1cccs1 (stereo not given)	53.6 µM (inactive)	43.9 µM (inactive)	> 100 µM (inactive)	> 100 µM (inactive)	45.2 µM (inactive)	61.9 µM (inactive)	> 100 µM (inactive)	> 100 µM (inactive)	91 µM (inactive)	> 100 µM (inactive)	62.1 µM (inactive)	> 100 µM (inactive)	> 100 µM (inactive)	> 100 µM (inactive)	83.9 µM (inactive)	75.2 µM (inactive)	79.8 µM (inactive)	> 100 µM (inactive)	36 µM (inactive)	> 100 µM (inactive)
C=C1CC[C@H](O)C(C)(C)[C@@H]1CC/C(C)=C/CC/C=C(\C)CC/C=C(\C)CCC=C(C)C	13.7 µM (inactive)	> 100 µM (inactive)	> 100 µM (inactive)	> 100 µM (inactive)	> 100 µM (inactive)	> 100 µM (inactive)	> 100 µM (inactive)	> 100 µM (inactive)	> 100 µM (inactive)	> 100 µM (inactive)	> 100 µM (inactive)	> 100 µM (inactive)	69.2 µM (inactive)	57.8 µM (inactive)	76.6 µM (inactive)	> 100 µM (inactive)	> 100 µM (inactive)	> 100 µM (inactive)	59.6 µM (inactive)	> 100 µM (inactive)
Cc1cc(C)c(NC(=S)NC(=O)c2ccccc2)cc1C	> 100 µM (inactive)	> 100 µM (inactive)	> 100 µM (inactive)	> 100 µM (inactive)	67.3 µM (inactive)	> 100 µM (inactive)	> 100 µM (inactive)	64.1 µM (inactive)	> 100 µM (inactive)	> 100 µM (inactive)	> 100 µM (inactive)	> 100 µM (inactive)	> 100 µM (inactive)	> 100 µM (inactive)	> 100 µM (inactive)	> 100 µM (inactive)	61.2 µM (inactive)	> 100 µM (inactive)	37.7 µM (inactive)	> 100 µM (inactive)
O=C(CSCC(=O)N/N=C/c1cccc(O)c1)N/N=C/c1cccc(O)c1	> 100 µM (inactive)	> 100 µM (inactive)	> 100 µM (inactive)	> 100 µM (inactive)	> 100 µM (inactive)	> 100 µM (inactive)	> 100 µM (inactive)	> 100 µM (inactive)	> 100 µM (inactive)	> 100 µM (inactive)	> 100 µM (inactive)	> 100 µM (inactive)	82.4 µM (inactive)	> 100 µM (inactive)	> 100 µM (inactive)	> 100 µM (inactive)	> 100 µM (inactive)	> 100 µM (inactive)	> 100 µM (inactive)	> 100 µM (inactive)
C=C(C)[C@@H](O)[C@H](O)C[C@H](C)C1CC[C@]2(C)C1=CC[C@@H]1[C@@]3(C)CC[C@@H](OC(C)=O)C(C)(C)[C@@H]3C[C@@H](OC3OC(COC(C)=O)C(O)C(O)C3O)[C@]12C (stereo not given in full)	1.98 µM (inactive)	2.45 µM (inactive)	3.4 µM (inactive)	2.02 µM (inactive)	2.31 µM (inactive)	3.48 µM (inactive)	3.66 µM (inactive)	2.32 µM (inactive)	3.48 µM (inactive)	2.06 µM (inactive)	1.9 µM (inactive)	2.81 µM (inactive)	3.05 µM (inactive)	4.04 µM (inactive)	0.354 µM (active)	1.93 µM (inactive)	2.96 µM (inactive)	2.44 µM (inactive)	1.99 µM (inactive)	2.78 µM (inactive)
C=Cc1c(C)c2cc3nc(c4c5[nH]c(cc6nc(cc1[nH]2)C(C)=C6CC)c(C)c5C(=O)C4C(=O)OC)C(CCC(=O)OC)C3C (stereo not given)	> 100 µM (inactive)	> 100 µM (inactive)	40.4 µM (inactive)	> 100 µM (inactive)	> 100 µM (inactive)	> 100 µM (inactive)	> 100 µM (inactive)	> 100 µM (inactive)	> 100 µM (inactive)	> 100 µM (inactive)	> 100 µM (inactive)	81.3 µM (inactive)	> 100 µM (inactive)	> 100 µM (inactive)	59.7 µM (inactive)	> 100 µM (inactive)	> 100 µM (inactive)	> 100 µM (inactive)	> 100 µM (inactive)	> 100 µM (inactive)
C=[N+](CNC(=O)CNC(=O)C(Cc1ccc([N+](=O)[O-])cc1)NC(=O)OC(C)(C)C)C(=O)CNC(=O)C(Cc1ccc([N+](=O)[O-])cc1)NC(=O)OC(C)(C)C (stereo not given)	39.4 µM (inactive)	> 100 µM (inactive)	> 100 µM (inactive)	49.1 µM (inactive)	29.8 µM (inactive)	> 100 µM (inactive)	25.1 µM (inactive)	39.4 µM (inactive)	> 100 µM (inactive)	44.6 µM (inactive)	21.6 µM (inactive)	26.1 µM (inactive)	60.7 µM (inactive)	52.7 µM (inactive)	38.9 µM (inactive)	58.2 µM (inactive)	> 100 µM (inactive)	> 100 µM (inactive)	24 µM (inactive)	27.8 µM (inactive)
CCOC(=O)CC(=O)C(=O)NN=C1NCCN1	> 100 µM (inactive)	> 100 µM (inactive)	> 100 µM (inactive)	> 100 µM (inactive)	> 100 µM (inactive)	> 100 µM (inactive)	> 100 µM (inactive)	> 100 µM (inactive)	> 100 µM (inactive)	> 100 µM (inactive)	> 100 µM (inactive)	> 100 µM (inactive)	> 100 µM (inactive)	> 100 µM (inactive)	> 100 µM (inactive)	> 100 µM (inactive)	> 100 µM (inactive)	> 100 µM (inactive)	> 100 µM (inactive)	> 100 µM (inactive)
COC(=O)[C@@]12C(=O)C(C)C(=O)[C@]1(C)C(C)=C[C@H]1[C@]3(C=O)CC[C@H](OC(C)=O)C(C)(C)[C@H]3CC[C@@]12C (stereo not given in full)	> 100 µM (inactive)	> 100 µM (inactive)	> 100 µM (inactive)	> 100 µM (inactive)	> 100 µM (inactive)	> 100 µM (inactive)	> 100 µM (inactive)	> 100 µM (inactive)	> 100 µM (inactive)	> 100 µM (inactive)	> 100 µM (inactive)	> 100 µM (inactive)	> 100 µM (inactive)	> 100 µM (inactive)	> 100 µM (inactive)	> 100 µM (inactive)	> 100 µM (inactive)	> 100 µM (inactive)	7.48 µM (inactive)	> 100 µM (inactive)
CCCCCCCCCCC(O)[C@H]1CCC(C2CC[C@H]([C@H](O)CCCCCCCCCCC(O)CC3=CC(C)OC3=O)O2)O1 (stereo not given in full)	1.76 µM (inactive)	1.04 µM (active)	4.57 µM (inactive)	1.55 µM (inactive)	1.7 µM (inactive)	3.18 µM (inactive)	1.56 µM (inactive)	3.03 µM (inactive)	1.44 µM (inactive)	1.39 µM (inactive)	1.45 µM (inactive)	1.7 µM (inactive)	1.11 µM (active)	1.48 µM (inactive)	3.59 µM (inactive)	1.48 µM (inactive)	2.75 µM (inactive)	1.24 µM (inactive)	1.9 µM (inactive)	1.58 µM (inactive)
c1csc(-c2ccc(-c3ccc(-c4cccs4)s3)s2)c1	> 100 µM (inactive)	> 100 µM (inactive)	> 100 µM (inactive)	> 100 µM (inactive)	> 100 µM (inactive)	> 100 µM (inactive)	> 100 µM (inactive)	> 100 µM (inactive)	> 100 µM (inactive)	> 100 µM (inactive)	> 100 µM (inactive)	> 100 µM (inactive)	> 100 µM (inactive)	> 100 µM (inactive)	> 100 µM (inactive)	> 100 µM (inactive)	> 100 µM (inactive)	> 100 µM (inactive)	> 100 µM (inactive)	> 100 µM (inactive)
O=[N+]([O-])c1ccc2[nH]nc(OCc3ccccc3Cl)c2c1	18.2 µM (inactive)	35.5 µM (inactive)	50.7 µM (inactive)	> 100 µM (inactive)	> 100 µM (inactive)	13.8 µM (inactive)	22.4 µM (inactive)	28.3 µM (inactive)	39.4 µM (inactive)	98.9 µM (inactive)	29.2 µM (inactive)	42.3 µM (inactive)	68.5 µM (inactive)	27 µM (inactive)	59.6 µM (inactive)	> 100 µM (inactive)	41.3 µM (inactive)	19.8 µM (inactive)	> 100 µM (inactive)	68.7 µM (inactive)
